In patent US12385076B2, “Preparation and application of high-activity and high-safety cardamine violifolia selenoprotein standard sample” (priority 2022, dated 2025):

Test system: rat liver
Test: Safety animal testing: 3-month repeated oral administration, liver lesions
Type: in vivo
Details: male rats, repeated oral administration for 3 months; dose equivalent to 96 μgSe/kg BW for the human body

O=[Se](O)O [sodium selenite]
liver lesions: caused liver lesions
